Laboratory results: US20060121047A1, “Use of hmgb polypetides for increasing immune responses” (priority 2002, published 2006)

B1: A box: Human HMGB1 mutant containing only the A box (amino terminus + A box), SEQ ID NO: 21 (protein, listed as Homo sapiens)
chain: MGKGDPKKPTGKMSSYAFFVQTCREEHKKKHPDASVNFSEFSKKCSERWKTMSAKEKGKFEDMAKADKARYEREMKTYIPPKGET
B2: carboxyl-truncated HMGB1: Human HMGB1 mutant in which the carboxy terminus was deleted, SEQ ID NO: 19 (protein, listed as Homo sapiens)
chain: MGKGDPKKPTGKMSSYAFFVQTCREEHKKKHPDASVNFSEFSKKCSERWKTMSAKEKGKFEDMAKADKARYEREMKTYIPPKGETKKKFKDPNAPKRLPSAFFLFCSEYRPKIKGEHPGLSIGDVAKKLGEMWNNTAADDKQPYEKKAAKLKEKYEKDIAAYRAKGKPDAAKKGVVKAEKSK
B3: wild-type HMGB1: Recombinant full length human HMGB1, SEQ ID NO: 18 (protein, listed as Homo sapiens)
chain: MGKGDPKKPTGKMSSYAFFVQTCREEHKKKHPDASVNFSEFSKKCSERWKTMSAKEKGKFEDMAKADKARYEREMKTYIPPKGETKKKFKDPNAPKRLPSAFFLFCSEYRPKIKGEHPGLSIGDVAKKLGEMWNNTAADDKQPYEKKAAKLKEKYEKDIAAYRAKGKPDAAKKGVVKAEKSKKKKEEEEDEEDEEDEEEEEDEEDEEDEEEDDDDE

Assays:
[1] = tested on: Murine macrophage-like RAW 264.7 cells; assay: TNF release from RAW 264.7 cells (L929 cytotoxicity bioassay); format: cell-based; details: for TNF release by synthetic peptide fragment of the B box: 10 μg/ml synthetic peptide, 10 hours (FIG. 3); for TNF release: 1 μg/ml protein, 8 hours, RAW 264.7 cells (FIG. 1)
Method: Murine macrophage-like RAW 264.7 cells (American Type Culture Collection, Rockville, Md.) were cultured in RPMI 1640 medium (Life Technologies, Grand Island N.Y.) supplemented with 10% fetal bovine serum (Gemini, Catabasas, Calif.), penicillin and streptomycin (Life Technologies) and were used at 90% confluence in serum-free Opti-MEM I medium (Life Technologies, Grand Island, N.Y.). […] Polymyxin B was not used in experiments of synthetic peptide studies.
TNF release was measured by a standard murine fibroblast L929 (ATCC, American Type Culture Collection, Rockville, Md.) cytotoxicity bioassay (Bianchi et al., Journal of Experimental Medicine 183:927-936, 1996) with the minimum detectable concentration of 30 pg/ml. Recombinant mouse TNF was obtained from R&D system Inc., (Minneapolis, MN). Murine fibroblast L929 cells (ATCC) were cultured in DMEM (Life Technologies, Grand Island, N.Y.) supplemented with 10% fetal bovine serum (Gemini, Catabasas, Calif.), penicillin (50 units/ml) and streptomycin (50 μg/ml) (Life Technologies) in a humidified incubator with 5% CO2.
The effect of the mutants on TNF release from Murine macrophage-like RAW 264.7 cells (ATCC) was carried out as follows. RAW 264.7 cells were cultured in RPMI 1640 medium (Life Technologies, Grand Island N.Y.) supplemented with 10% fetal bovine serum (Gemini, Catabasas, Calif.), penicillin and streptomycin (Life Technologies). Polymyxin (Sigma, St. Louis, Mo.) was added at 100 units/ml to suppress the activity of any contaminating LPS. Cells were incubated with 1 μg/ml of full length (wild-type) HMGB1 and each HMGB1 mutant protein in Opti-MEM I medium for 8 hours, and conditioned supernatants (containing TNF which had been released from the cells) were collected and TNF released from the cells was measured by a standard murine fibroblast L929 (ATCC) cytotoxicity bioassay (Bianchi et al., supra) with the minimum detectable concentration of 30 pg/ml. Recombinant mouse TNF was obtained from R & D Systems Inc., (Minneapolis, Minn.) and used as control in these experiments. Data in FIG. 1 are all presented as mean+SEM unless otherwise indicated. (=6−10).
To further examine the effect of HMGB1 B box on cytokine production, varying amounts of HMGB1 B box were evaluated for the effects on TNF, IL-1B, and IL-6 production in murine macrophage-like RAW 264.7 cells. Conditioned media were harvested and measured for TNF, IL-1β and IL-6 levels. TNF levels were measured as described herein, and IL-1β and IL-6 levels were measured using the mouse IL-1β and IL-6 enzyme-linked immunosorbent assay (ELISA) kits (R&D System Inc., Minneapolis, 1) and N>5 for all experiments.
The kinetics of B box-induced TNF release was also examined. TNF release and TNF mRNA expression was measured in RAW 264.7 cells induced by B box polypeptide or GST tag polypeptide only used as a control (vector) (10 μg/ml) for 0 to 48 hours. Supernatants were analyzed for TNF protein levels by an L929 cytotoxicity assay (N=3-5) as described herein. For mRNA measurement, cells were plated in 100 mm plate and treated in Opti-MEM I medium containing B box polypeptide or the vector alone for 0, 4, 8, or 24 hours, as indicated in FIG. 2D. The vector only sample was assayed at the 4 hour time point. Cells were scraped off the plate and total RNA was isolated by RNAzol B method in accordance with the manufacturer's instructions (Tel-Test “B”, Inc., Friendswood, Tex.). TNF (287 bp) was measured by RNase protection assay (Ambion, Austin, Tex.). Equal loading and the integrity of RNA was verified by ethidium bromide staining of the RNA sample on agarose-formaldehyde gel. […] TNF mRNA expression was maximal at 4 hours and decreased at 8 and 24 hours. […] A similar study was carried out measuring TNF protein released from RAW 264.7 cells 0, 4, 8, 24, 32 or 48 hours after administration of B box or vector only (GST tag), using the L929 cytotoxicity assay described herein. […] Data are representative of three separate experiments. […]

[2] = tested on: RAW 264.7 cells; details: polymyxin B alone, 100-1,000 units/ml; cited from earlier work

Row | Molecule | TNF release by synthetic peptide fragment of the B box [1] | TNF release [1] | also measured
1 | fkdpnapkrlpsafflfcse (FKDPNAPKRLPSAFFLFCSE; listed as Homo sapiens) [1-20-mer] | TNF-stimulating activity was retained | – | TNF stimulating activity relative to full length synthetic B box (1-74-mer) or full length HMGB1 ([1]; peptide 10 μg/ml, 10 hours): less potent
2 | 45-64: Synthetic peptide, amino acids 45-64 of the HMGB1 B box (SEQ ID NO: 20) (WNNTAADDKQPYEKKAAKLK; listed as Homo sapiens) | did not induce TNF release | – | –
3 | 60-74: Synthetic peptide, amino acids 60-74 of the HMGB1 B box (SEQ ID NO: 20) (AAKLKEKYEKDIAAY; listed as Homo sapiens) | did not induce TNF release | – | –
4 | 30-49: Synthetic peptide, amino acids 30-49 of the HMGB1 B box (SEQ ID NO: 20) (PGLSIGDVAKKLGEMWNNTA; listed as Homo sapiens) | did not induce TNF release | – | –
5 | 16-25: Synthetic peptide, amino acids 16-25 of the HMGB1 B box (SEQ ID NO: 20) (LFCSEYRPKI; listed as Homo sapiens) | did not induce TNF release | – | –
6 | Polymyxin B | – | – | cell viability [2]: did not influence cell viability
7 | B1 | – | only weakly activated TNF release | –
8 | B2 | – | significantly stimulated TNF release | –
9 | B3 | – | significantly stimulated TNF release | –
